In US20230124969A1, “OPHTHALMIC FORMULATION COMPRISING N-[5-(AMINOSULFONYL)-4-METHYL-1,3- THIAZOL-2-YL]-N-METHYL-2-[4-(2-PYRIDINYL)PHENYL]ACETAMIDE HEMIHYDRATE” (AiCuris GmbH & Co. KG, priority 2020, published 2023):
Where two headings read alike, the source gives them in different places.

Legend:
Assay type in all cases: physicochemical
[1] = In-use stability of ophthalmic formulations stored at room temperature and 2-8 °C
Procedure: To study the in-use stability over 5 weeks at room temperature (RT) and at a temperature in the range of from 2° C. - 8° C., stock solutions with a concentration of 1.0 mg/mL of DS were prepared in PEG200 and in PEG400. The different stock solutions were diluted in 3 different compositions of artificial tears to a final concentration of 0.05 mg DS per mL ophthalmic formulation.
An amount of 1.5 mL stock solution was diluted with 28.5 mL of the respective artificial tears solution (either GenTeal® Tears or Thera® Tears or Visine® tears) in a beaker and stirred for 2 min with a magnet stirrer. The pH value was determined and samples were taken before and after sterile filtration. The solutions were filtered through CA (cellulose acetate) 0.22 µm filter system. The content of the beaker was withdrawn and respectively 14 mL of the prepared formulation were added to two empty 50 mL tubes. In addition, one empty 2 mL tube was provided and 1.5 mL of the prepared formulation was added to the 2 mL tube. The samples were stored at RT and at a temperature in the range of from 2-8° C. over 5 weeks. […]
To study the impact of the pH value on the tendency of the ophthalmic formulation to degrade and precipitate 3 different compositions of artificial tears were adjusted to pH 4.0, 5.0 and 6.0. A stock solution of Pritelivir free base hemihydrate in PEG400 at a concentration of 1.0 mg/mL was prepared. The stock solutions were diluted in the pH adjusted artificial tears at a Pritelivir free base hemihydrate concentration of 0.05 mg/mL and filtered through a RC 0.2 µm sterile filter. It turned out to be preferable to carry out the dilution step for each sample one after the other to keep the time before the filtration step short.
All samples were prepared as triplicates. One sample was prepared after the other to keep the preparation time short and to minimize the risk of precipitation. The stock solution was diluted with pH adjusted artificial tears solution in a tube and gently mixed. A sample was taken to determine the final concentration. An amount of 20 mL of the tube was withdrawn with a 20 mL syringe. Then, the syringe was connected to the RC […] filter via Luer Lok and the solution was filtered in two portions of 10 mL each into two 50 mL tube. Another sample was taken to determine the final concentration after filtration.
The samples were stored at room temperature and at a temperature in the range of from 2° C.-8° C. over 4 weeks.
To determine an acceptable pH value for ophthalmic use, a stock solution of Pritelivir free base hemihydrate in PEG400 was prepared at a concentration 1.0 mg/mL. […]
(§1) The amount of hydrochloric acid was added as determined in the pre-testing to adjust the pH to 6.0 and a sample was taken to determine the final concentration before filtration. […]

[2] = Sterile filtration / filter compatibility: HPLC assay before and after filtration; conditions: for assay data before and after filtration: Example 3, 0.05 mg/mL DS, PEG200 stock diluted in GenTeal tears
Procedure: • Dilute 500 µL of each sample with 500 µL ACN/MeOH/H2O ratio 25:25:50 + 1% HAc (1:2) • Mix it 5 s by vortexing
• Dilute 250 µL of each sample with 730 µL ACN/MeOH/H2O ratio 25:25:50 + 1% HAc and add 20 µL ACN/DMSO 4:1 (1:4) • Mix it 5 s by vortexing
An amount of 1.5 mL stock solution was diluted with 28.5 mL of the respective artificial tears solution (either GenTeal® Tears or Thera® Tears or Visine® tears) in a beaker and stirred for 2 min with a magnet stirrer. The pH value was determined and samples were taken before and after sterile filtration. The solutions were filtered through CA (cellulose acetate) 0.22 µm filter system. The content of the beaker was withdrawn and respectively 14 mL of the prepared formulation were added to two empty 50 mL tubes. In addition, one empty 2 mL tube was provided and 1.5 mL of the prepared formulation was added to the 2 mL tube. The samples were stored at RT and at a temperature in the range of from 2-8° C. over 5 weeks.
(§2) The testing was repeated one time to have samples in duplicate (n=2). An amount of 6 mL of the ophthalmic formulation was withdrawn with a 10 mL syringe. An amount of 1 mL was used to determine the final concentration before filtration. The syringe was connected with a PA 0.2 µm filter via Luer Lok and the solution was filtered. Another sample was taken to determine the final concentration after filtration.
The filter was then disconnected from the syringe and an amount of 3 mL DMSO was withdrawn with the used 10 mL syringe. Then, the syringe was shaken smoothly. An amount of 1 mL was used to determine the final concentration after rinsing. The syringe was again connected to the used PA 0.2 µm filter via Luer Lok the DMSO was filtered. A sample was taken to determine the final concentration after washing.
This protocol was repeated for all tested filters: PA / Nylon, PALE / Nylon, PTFE, PVDF, CM, CA, RC, PP, PES. Each filter contained a filter material with a pore size of 0.2 µm and of 0.45 µm.
as §2, with “repeated” for “repeated one time”, “triplicate (n=3).” for “duplicate (n=2).”, “the” for “a PA 0.2 µm”
The filter was disconnected from the syringe and an amount of 2 mL DMSO was withdrawn with a fresh 10 mL syringe. The syringe was again connected to the used filter via Luer Lok and the DMSO was filtered. […]
as §1

[3] = Preparation of 1 mg/mL PEG400 stock solution and ophthalmic formulation with different drug substances (experiments 8-10); conditions: for suitability as drug substance for preparation of the ophthalmic formulation: three tested drug substances, experiments 1-10
Procedure: All liquids and the DS were equilibrated to ≥ 20° C. An amount of 20 ml of PEG 400 was added to a 50 mL tube and 20 mg of DS were dissolved therein. The solution was mixed by vortexing the tube for 5 s and the tube was shaken until the DS was dissolved.
To study whether Pritelivir free base hemihydrate can be replaced with Pritelivir mesylate, Experiment 8 was repeated with Pritelivir mesylate monohydrate as DS.
The preparation protocol of Example 8 was followed also for the ophthalmic formulation containing Pritelivir mesylate monohydrate as drug substance.
To study whether Pritelivir free base hemihydrate can be replaced with Pritelivir maleate, Experiment 8 was repeated with Pritelivir maleate as DS.

[4] = Pre-test: PEG 200 stock solutions diluted in GenTeal Tears, visual check for precipitation (Example 1); conditions: stock solution in PEG 200 diluted with GenTeal tears, visual inspection
Procedure: In order to prepare the new ophthalmic formulation the drug substance concentrations of both i) stock solution and ii) drug product which is administered to the patient need to be determined. For that propose, a stock solution with different concentrations of Pritelivir free base hemihydrate in PEG 200 was diluted in GenTeal® tears and the precipitation was checked over time. All liquids and the DS were equilibrated to ≥ 20° C. Seven 10 mL tubes were provided. In each of these tubes, 5 ml of PEG 200 were added and the required amount of DS was dissolved therein to provide the following stock solutions: 30 mg/mL, 25 mg/mL, 20 mg/mL, 10 mg/mL, 5 mg/mL, 1 mg/mL, 0.05 mg/mL. The solutions were mixed by vortexing the tubes for 5 s and the tubes were shaken until the DS was dissolved. The stock solutions were diluted with GenTeal® tears and the pH value was measured. After that the samples were checked for precipitation by visual inspection.

Compound	impurities on storage ([1]; Example 6, PEG400 stock diluted with GenTeal Tears, 0.05 mg/mL, after 1 week at room temperature)	time over which samples were stable ([1]; Example 6, PEG400 stock diluted with GenTeal Tears, 0.05 mg/mL, stored at 2-8° C.)	stability in most artificial tears solutions ([1]; pH 4.0)	stability for an ophthalmic formulation ([1]; pH between 6.0 and 7.0, formulation contains glycerin, hypromellose and polyethylene glycol 400)	assay data before and after filtration ([2]; filter material PFTE 0.2 µm)	assay data before and after filtration ([2]; filter material RC 0.2 µm)	assay content before and after filtration ([2]; Example 6, 1 mg/mL PEG400 stock diluted with GenTeal Tears to 0.05 mg/mL, RC 0.2 µm filter, six samples)	suitability as drug substance for preparation of the ophthalmic formulation [3]	drug load of ophthalmic formulation obtainable without any visually detectable precipitation [4]	solubility in PEG400 / preparation of stock solution ([3]; at a concentration of 1 mg/mL)	assay level after filtration ([2]; Comparative Example 1, protocol of Example 8, RC 0.2 µm filter)	solubility in PEG400 / preparation of stock solution [3]	precipitation ([3]; Comparative Example 1, protocol of Example 8 (PEG400, Visine Tears, 0.1 M HCl))
Cc1nc(N(C)C(=O)Cc2ccc(-c3ccccn3)cc2)sc1S(N)(=O)=O [Pritelivir free base hemihydrate, N-[5-(aminosulfonyl)-4-methyl-1,3-thiazol-2-yl]-N-methyl-2-[4-(2-pyridinyl)phenyl]acetamide hemihydrate]	increase of impurities	1 week	not stable	sufficiently stable	identical values	identical values	comparable	suitable	24 mg/mL				
Cc1nc(N(C)C(=O)Cc2ccc(-c3ccccn3)cc2)sc1S(N)(=O)=O.O=C(O)/C=C\C(=O)O [Pritelivir maleate, N-[5-(aminosulfonyl)-4-methyl-1,3-thiazol-2-yl]-N-methyl-2-[4-(2-pyridinyl)phenyl]acetamide maleate]								insolubility and precipitation problems		not possible			
N-[5-(amino-sulfonyl)-4-methyl-1,3-thiazol-2-yl]-N-methyl-2-[4-(2-pyridinyl)phenyl] acetamide mesylate monohydrate [Pritelvir mesylate monohydrate]								insolubility and precipitation problems			decreased significantly	not soluble	Precipitation was observed
